pKi: −log10 of the molar value.
The compounds below were run against BoNT/A LC1-429 (Clostridium botulinum, UniProt P0DPI1) (assay: biochemical).
BoNT/A LC1-429, sequence (P0DPI1 1-429, added parts left off): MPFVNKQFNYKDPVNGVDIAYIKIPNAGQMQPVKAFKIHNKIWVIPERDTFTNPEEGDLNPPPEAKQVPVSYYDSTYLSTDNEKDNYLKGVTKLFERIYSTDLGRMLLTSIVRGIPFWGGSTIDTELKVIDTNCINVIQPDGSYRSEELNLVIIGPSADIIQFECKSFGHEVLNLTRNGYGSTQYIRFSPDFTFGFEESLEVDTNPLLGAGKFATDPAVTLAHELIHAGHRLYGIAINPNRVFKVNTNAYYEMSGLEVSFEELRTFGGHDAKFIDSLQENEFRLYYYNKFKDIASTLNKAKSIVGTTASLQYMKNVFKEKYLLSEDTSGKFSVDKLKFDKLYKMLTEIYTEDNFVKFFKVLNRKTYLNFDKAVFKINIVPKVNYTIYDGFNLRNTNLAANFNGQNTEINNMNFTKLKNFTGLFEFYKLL

Row | Compound | pKi
1 | CCO[C@H](CC(=O)NO)[C@H](Cc1ccc(C(=O)N(C)C)cc1)c1ccc(F)cc1 [Example 1-8, 4-((2R,3R)-3-ethoxy-2-(4-fluorophenyl)-5-(hydroxyamino)-5-oxopentyl)-N,N-dimethylbenzamide] | 5.36
2 | CCO[C@H](CC(=O)NO)[C@H](Cc1ccc(C(=O)O)cc1)c1ccc(F)cc1 [Example 1-10, 4-((2R,3R)-3-ethoxy-2-(4-fluorophenyl)-5-(hydroxyamino)-5-oxopentyl)benzoic acid] | 4.63
3 | CCO[C@H](CC(=O)NO)[C@H](Cc1cccc(-c2ccncc2)c1)c1ccc(F)cc1 [Example 1-11, (3R,4R)-3-ethoxy-4-(4-fluorophenyl)-N-hydroxy-5-(3-(pyridin-4-yl)phenyl)pentanamide] | 5.97
4 | CCO[C@H](CC(=O)NO)[C@H](Cc1ccc(-c2ccncc2)cc1)c1ccc(F)cc1 [Example 1-12, (3R,4R)-3-ethoxy-4-(4-fluorophenyl)-N-hydroxy-5-(4-(pyridin-4-yl)phenyl)pentanamide] | 6.75
5 | CCO[C@H](CC(=O)NO)[C@H](Cc1ccc(-c2cccnc2)cc1)c1ccc(F)cc1 [Example 1-13, (3R,4R)-3-ethoxy-4-(4-fluorophenyl)-N-hydroxy-5-(4-(pyridin-3-yl)phenyl)pentanamide] | 6.83
6 | CCO[C@H](CC(=O)NO)[C@H](Cc1ccc(-c2cncc(C)c2)cc1)c1ccc(F)cc1 [Example 1-14, (3R,4R)-3-ethoxy-4-(4-fluorophenyl)-N-hydroxy-5-(4-(5-methylpyridin-3-yl)phenyl)pentanamide] | 6.80

Reference: patent US9505710B2 (priority 2015, dated 2016)
